Test [1] relates to TAG. Briefly: triacylglycerol accumulation inhibitor potency, dose response, cell-based, panel, Nile Red and DAPI fluorescence, H9c2 (AID 651630).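 Further: cells exposed to compound overnight before fixation and staining.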 The following applies: H9c2 cells, Nile Red TAG fluorescence, oleic acid.
For test [2], the system named is DAPI. The test is described as above. The conditions noted are these: H9c2 cells, DAPI nuclear fluorescence (cytotoxicity counter-readout), oleic acid.

The record followed here is PubChem BioAssay AID651630 (Sanford-Burnham Center for Chemical Genomics, 2012).

Usually IC50 stands for the concentration at which inhibition is half-maximal.

The source made the active and inactive calls.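 How the source made its calls: active means lipid-stain IC50 at or below a set limit, with nuclear-stain toxicity IC50 at least five times higher; inactive means the rest.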 A value given as a limit tells only on which side of the number the result lay.

As to `CCOc1ccc(Cc2nnc(SCC(=O)Nc3ccccc3)n(N)c2=O)cc1`, the IC50 was 5.04 µM in test [1] (mean of runs), 5.36 µM in test [1] (run 1) and 4.71 µM in test [1] (run 2). Further, the values for the IC50 cytotoxicity (DAPI nuclear signal decrease) in test [2] (mean of runs), in test [2] (run 1) and in test [2] (run 2) were > 25 µM (inactive), more than 25 µM and more than 25 µM, respectively.

As for `COc1ccc(C(=O)Nc2sc3c(c2C(=O)NCc2ccco2)CCCC3)cc1OC`, the IC50 in test [1] (mean of runs) was > 25 µM (inactive); in test [1] (run 1), more than 25 µM; in test [1] (run 2) it was more than 25 µM. The IC50 cytotoxicity (DAPI nuclear signal decrease) in test [2] (mean of runs) was > 25 µM (inactive); in test [2] (run 1), more than 25 µM; in test [2] (run 2), more than 25 µM.

As for `COc1cc(NC(=O)c2cc([N+](=O)[O-])ccc2NC(=O)CN2CCN(c3ccccn3)CC2)cc(OC)c1`, the IC50 in test [1] (mean of runs) is 12.6 µM; in test [1] (run 1), 13.3 µM; in test [1] (run 2), 11.9 µM. In addition, the IC50 cytotoxicity (DAPI nuclear signal decrease) in test [2] (mean of runs) is > 25 µM (inactive); in test [2] (run 1), more than 25 µM; in test [2] (run 2), more than 25 µM.

Consider `CCOc1ccc(C2=Nc3ccccc3C(c3ccc(N4CCOCC4)cc3)=NN2)cc1`, for which the IC50 in test [1] (run 1) was more than 25 µM; in test [1] (run 2), 14.4 µM. Further, the IC50 cytotoxicity (DAPI nuclear signal decrease) was > 25 µM (inactive) in test [2] (mean of runs), more than 25 µM in test [2] (run 1) and more than 25 µM in test [2] (run 2).

Regarding `CC(=O)c1cccc(-c2ccc(CN3C(CC(C)C)C(=O)N(Cc4cn(CC5CCCCC5)nn4)CCS3(=O)=O)cc2)c1` (centres undefined), the IC50 in test [1] (run 1) is more than 25 µM; in test [1] (run 2), 18.1 µM. Further, the IC50 cytotoxicity (DAPI nuclear signal decrease) in test [2] (mean of runs) was > 25 µM (inactive); in test [2] (run 1), more than 25 µM; in test [2] (run 2), more than 25 µM.

As for `CCOc1ccc(CCNC(=O)CN(C)S(=O)(=O)c2cccc3nsnc23)cc1OCC`, the IC50 in test [1] (mean of runs) is 17.5 µM (inactive); in test [1] (run 1), 14.2 µM; in test [1] (run 2), 20.8 µM. The IC50 cytotoxicity (DAPI nuclear signal decrease) in test [2] (mean of runs) is > 25 µM (inactive); in test [2] (run 1), more than 25 µM; in test [2] (run 2), more than 25 µM.

As to `COc1ccccc1N1CCN(CC(=O)Nc2cc(C)nn2-c2nc(C)cc(C)n2)CC1`, the IC50 in test [1] (mean of runs) was 18.9 µM (inactive); in test [1] (run 1), 19.7 µM; in test [1] (run 2), 18.1 µM. The values for the IC50 cytotoxicity (DAPI nuclear signal decrease) in test [2] (mean of runs), in test [2] (run 1) and in test [2] (run 2) were > 25 µM (inactive), more than 25 µM and more than 25 µM, respectively.

As to `CCC(C)(C)NC(=O)C(c1ccc(OC)cc1)N(Cc1cccs1)C(=O)CCC(=O)Nc1cc(C)on1` (centres undefined), the IC50 is 13.3 µM in test [1] (mean of runs), 13.1 µM in test [1] (run 1) and 13.5 µM in test [1] (run 2). The IC50 cytotoxicity (DAPI nuclear signal decrease) in test [2] (mean of runs) is > 25 µM (inactive); in test [2] (run 1), more than 25 µM; in test [2] (run 2), more than 25 µM.

On to `Cc1nn2c(N3CCCC3)cc(C(C)C)nc2c1-c1ccccc1`, for which the values for the IC50 in test [1] (mean of runs), in test [1] (run 1) and in test [1] (run 2) were > 25 µM (inactive), more than 25 µM and more than 25 µM, respectively. The IC50 cytotoxicity (DAPI nuclear signal decrease) in test [2] (mean of runs) was > 25 µM (inactive); in test [2] (run 1) it was more than 25 µM; in test [2] (run 2), more than 25 µM.

Consider `COc1ccc(C(C(=O)NC(C)(C)C)N(Cc2cccs2)C(=O)CCC(=O)Nc2cc(C)on2)cc1` (centres undefined), for which the IC50 in test [1] (mean of runs) was 13.6 µM; in test [1] (run 1), 12.7 µM; in test [1] (run 2), 14.4 µM. Moreover, the IC50 cytotoxicity (DAPI nuclear signal decrease) in test [2] (mean of runs) was > 25 µM (inactive); in test [2] (run 1) it was more than 25 µM; in test [2] (run 2), more than 25 µM.

As to `O=C(Nc1ccc(S(=O)(=O)N2CCOCC2)cc1)c1ccc([N+](=O)[O-])s1`, the figures for the IC50 in test [1] (mean of runs), in test [1] (run 1) and in test [1] (run 2) were 10.9 µM, 13.1 µM and 8.75 µM, respectively. Also, the IC50 cytotoxicity (DAPI nuclear signal decrease) in test [2] (mean of runs) is > 25 µM (inactive); in test [2] (run 1), more than 25 µM; in test [2] (run 2), more than 25 µM.

Regarding `COc1ccc(CNC(=O)Nc2nc(C(N)Cc3ccc(Cl)cc3)cs2)cc1` (centres undefined), the values for the IC50 in test [1] (mean of runs), in test [1] (run 1) and in test [1] (run 2) were > 25 µM (inactive), more than 25 µM and more than 25 µM, respectively. Also, the IC50 cytotoxicity (DAPI nuclear signal decrease) in test [2] (mean of runs) is 21.7 µM (inactive); in test [2] (run 1) it was 19.5 µM; in test [2] (run 2), 23.9 µM.

Consider `CN(C)CCNC(=O)c1cccc(-c2cnc3c(NC=O)cc(-c4cccc(C(F)(F)F)c4)cn23)c1`, for which the IC50 in test [1] (mean of runs) is > 25 µM (inactive); in test [1] (run 1), more than 25 µM; in test [1] (run 2), more than 25 µM. Further, the IC50 cytotoxicity (DAPI nuclear signal decrease) in test [2] (mean of runs) was > 25 µM (inactive); in test [2] (run 1), more than 25 µM; in test [2] (run 2) it was more than 25 µM.

In the case of `Cc1cc(N2CCOCC2)n2nc(C)c(-c3ccccc3)c2n1`, the 50% inhibitory concentration (IC50) was 14.6 µM in test [1] (run 1) and more than 25 µM in test [1] (run 2). In addition, the IC50 cytotoxicity (DAPI nuclear signal decrease) was > 25 µM (inactive) in test [2] (mean of runs), more than 25 µM in test [2] (run 1) and more than 25 µM in test [2] (run 2).

For `COc1ccc([C@H]2C[C@H](O)[C@@H](n3cc(-c4ccc(F)cc4)nn3)CN2Cc2cccs2)cc1`, the IC50 was 18.3 µM (inactive) in test [1] (mean of runs), 12.2 µM in test [1] (run 1) and 24.3 µM in test [1] (run 2). The IC50 cytotoxicity (DAPI nuclear signal decrease) in test [2] (run 1) was 23.6 µM; in test [2] (run 2), more than 25 µM.

Regarding `CN(C)C(=S)N=c1ssc(=S)n1Cc1ccco1`, the IC50 was > 25 µM (inactive) in test [1] (mean of runs), more than 25 µM in test [1] (run 1) and more than 25 µM in test [1] (run 2). The IC50 cytotoxicity (DAPI nuclear signal decrease) is > 25 µM (inactive) in test [2] (mean of runs), more than 25 µM in test [2] (run 1) and more than 25 µM in test [2] (run 2).

As for `FC(F)Oc1ccc(-c2csc(NNC3=NCCCCC3)n2)cc1`, the IC50 in test [1] (mean of runs) was 2.55 µM; in test [1] (run 1), 2.29 µM; in test [1] (run 2), 2.81 µM. Moreover, the IC50 cytotoxicity (DAPI nuclear signal decrease) in test [2] (run 1) and in test [2] (run 2) was more than 25 µM in each case.

Turning to `Cc1cccc2c(N=Nc3ccc(S(=O)(=O)Nc4ccc(Cl)cc4)cc3[N+](=O)[O-])c(O)[nH]c12`, the IC50 in test [1] (mean of runs) is 12.2 µM; in test [1] (run 1) it was 16.5 µM; in test [1] (run 2), 7.89 µM. For the same compound, the IC50 cytotoxicity (DAPI nuclear signal decrease) is > 25 µM (inactive) in test [2] (mean of runs), more than 25 µM in test [2] (run 1) and more than 25 µM in test [2] (run 2).

`CCOc1ccc(CCNC(=O)CN2CCN(Cc3ccccc3F)C2=O)cc1OCC`: the IC50 in test [1] (mean of runs) was 3.01 µM; in test [1] (run 1), 2.44 µM; in test [1] (run 2), 3.57 µM. Further, the IC50 cytotoxicity (DAPI nuclear signal decrease) in test [2] (run 1) and in test [2] (run 2) was more than 25 µM each time.

As for `COc1cc(C(=O)N2CCN(c3cc(Cl)ccc3Cl)CC2)cc(OC)c1OC`, the IC50 is > 25 µM (inactive) in test [1] (mean of runs), more than 25 µM in test [1] (run 1) and more than 25 µM in test [1] (run 2). Moreover, the IC50 cytotoxicity (DAPI nuclear signal decrease) was > 25 µM (inactive) in test [2] (mean of runs), more than 25 µM in test [2] (run 1) and more than 25 µM in test [2] (run 2).

Consider `CN(C)CCCn1c(SCC(=O)Nc2nc(-c3cccc(Br)c3)cs2)nc2ccccc2c1=O`, for which the IC50 in test [1] (mean of runs) was 9.78 µM; in test [1] (run 1) it was 10.1 µM; in test [1] (run 2) it was 9.46 µM. The figures for the IC50 cytotoxicity (DAPI nuclear signal decrease) in test [2] (mean of runs), in test [2] (run 1) and in test [2] (run 2) were > 25 µM (inactive), more than 25 µM and more than 25 µM, respectively.

On to `N#CC(C#N)=c1ccc2c(c1)N1C(c3ccccc3)=CC(c3ccccc3)C3CCCCC31N=2` (centres undefined), for which the IC50 in test [1] (mean of runs) is 1.92 µM; in test [1] (run 1), 1.59 µM; in test [1] (run 2) it was 2.25 µM. Also, the IC50 cytotoxicity (DAPI nuclear signal decrease) in test [2] (run 1) and in test [2] (run 2) was more than 25 µM throughout.

As for `COc1cc(NC(=O)c2cc3cccc(OC)c3o2)cc(C(=O)Nc2cccc(C(F)(F)F)c2)c1`, the IC50 in test [1] (mean of runs) was 12 µM; in test [1] (run 1), 9.27 µM; in test [1] (run 2), 14.7 µM. Moreover, the values for the IC50 cytotoxicity (DAPI nuclear signal decrease) in test [2] (mean of runs), in test [2] (run 1) and in test [2] (run 2) were > 25 µM (inactive), more than 25 µM and more than 25 µM, respectively.

Take `O=C(CCC(=O)N1CCOc2ccc(Cl)cc21)NCCCN1CCC(Cc2ccccc2)CC1`: the figures for the IC50 in test [1] (run 1) and in test [1] (run 2) were more than 25 µM and 9.91 µM, respectively. Besides, the IC50 cytotoxicity (DAPI nuclear signal decrease) in test [2] (mean of runs) is 15.1 µM (inactive); in test [2] (run 1), 16 µM; in test [2] (run 2), 14.2 µM.

On to `COc1cc(OC)c2c(-c3ccccc3)cc(=O)oc2c1C(CCN1CCCCC1)c1ccc2c(c1)OCO2` (centres undefined), for which the IC50 in test [1] (mean of runs) was 22.9 µM (inactive); in test [1] (run 1), 20.9 µM; in test [1] (run 2), 24.9 µM. Moreover, the IC50 cytotoxicity (DAPI nuclear signal decrease) was > 25 µM (inactive) in test [2] (mean of runs), more than 25 µM in test [2] (run 1) and more than 25 µM in test [2] (run 2).

Turning to `CCOC(=O)c1cc(-c2ccccc2)sc1NC(=S)Nc1cccc(C)n1`, the values for the IC50 in test [1] (mean of runs), in test [1] (run 1) and in test [1] (run 2) were > 25 µM (inactive), more than 25 µM and more than 25 µM, respectively. Moreover, the IC50 cytotoxicity (DAPI nuclear signal decrease) in test [2] (mean of runs) is > 25 µM (inactive); in test [2] (run 1), more than 25 µM; in test [2] (run 2) it was more than 25 µM.

For `CCN(CC)CCC(c1ccc2c(c1)OCO2)c1c(OC)cc(OC)c2c(-c3ccccc3)cc(=O)oc12` (centres undefined), the IC50 in test [1] (mean of runs) was > 25 µM (inactive); in test [1] (run 1), more than 25 µM; in test [1] (run 2), more than 25 µM. For the same compound, the IC50 cytotoxicity (DAPI nuclear signal decrease) in test [2] (mean of runs) is > 25 µM (inactive); in test [2] (run 1) it was more than 25 µM; in test [2] (run 2), more than 25 µM.
